Like-named read-outs stand apart in the source and are kept apart here.
Legend:
thrombin = target: T1, thrombin (Homo sapiens, UniProt P00734); assay: Thrombin enzymatic assay; type: biochemical
T1 construct: purchased RD Systems 1473-SE-010
Description: Assays contained 25 pM thrombin (RD Systems: 1473-SE-010), 25 µM BOC-PVR-AMC, and 100 nL of test compound in 100% DMSO, in a total of 10 µL of 50 mM Tris, pH 7.0, 100 mM NaCl, 10 mM CaCl2, and 0.005% Tween20 in black low volume 384-well plates. The production of AMC was followed at 5-min intervals at 355 nm excitation and 460 nm emission in an Envision microplate reader (PerkinElmer). Reaction rates were determined by linear regression of the resulting progress curves. […] Nonlinear regression fits of the data to a one-site dose-response curve were performed using XLFit (IDBS).

cathepsin L = target: T2, cathepsin L (Homo sapiens, UniProt P07711); assay: Cathepsin L enzymatic assay; type: biochemical
T2 construct: purchased RD Systems 952-CY-010
Description: The assays contained 25 pM cathepsin L (RD Systems: 952-CY-010), 5 µM LR-AMC, 100 nL of test compound in 100% DMSO, in a total of 10 µL of 20 mM potassium phosphate, pH 6.0, 150 mM NaCl, 0.005% Tween20, and 5 mM DTT in black low volume 384-well plates. The production of AMC was followed at 5-min intervals with excitation at 355 nm and emission at 460 nm using an Envision microplate reader (PerkinElmer). Reaction rates were determined by linear regression of the resulting progress curves. […] Nonlinear regression fits of the data to a one-site dose-response curve were performed using XLFit (IDBS).

cathepsin B = target: T3, cathepsin B (Homo sapiens, UniProt P07858); assay: Cathepsin B enzymatic assay; type: biochemical
T3 construct: purchased RD Systems 953-CY-010
Description: Assays contained 0.6 nM cathepsin B (RD Systems: 953-CY-010), 25 µM Z-LR-AMC, and 100 nL of test compound in 100% DMSO in a total of 10 µL of 50 mM MES, pH 5.0, 150 mM NaCl, 0.05% CHAPS, and 5 mM DTT in black low volume 384-well plates. The production of AMC was followed at 5-min intervals at 355 nm excitation and 460 nm emission in an Envision microplate reader (PerkinElmer). Reaction rates were determined by linear regression of the resulting progress curves. Rates were normalized to percent inhibition, where 0% is equal to the rate in the presence enzyme, and 100% is equal to the rate in the absence of enzyme. Nonlinear regression fits of the data to a one-site dose-response curve were performed using XLFit (IDBS).

[1] = Mouse liver microsome stability assay; settings: microsomes
Description: Test compounds (0.5 µM) were incubated with liver microsomes ([…]) and an NADPH-regenerating system (cofactor solution), and samples were taken at various time points, quenched with an acetonitrile solution containing an internal standard, and then analyzed by liquid chromatography with tandem mass spectrometry (LC-MS/MS). […] For the 0-min time point, 135 µL of acetonitrile (ACN) containing internal standard (IS) was added to the wells of a 0-min plate, followed by the addition of 15 µL of NADPH stock solution (6 mM). All other plates were pre-incubated at 37°C for 5 min. Fifteen microliters of NADPH stock solution (6 mM) was then added to the plates to start the reaction and timing. […] Fifty microliters of supernatant was then transferred from each well into a 96-well sample plate containing 50 µL of ultra-pure water for LC/MS analysis.

SARS-CoV-2 WT (WA1/2020) = assay: Live virus high-content imaging assay (nucleocapsid expression), WT; type: cell-based; settings: Severe acute respiratory syndrome coronavirus 2, Vero C1008, Vero-E6 cells, 48 h infection, read-out: EC50 viral high-content imaging assay
[2] = Hamster pharmacokinetics (plasma and lung); type: in vivo
Description: Fig 10 […] pharmacokinetics of 1. Mean plasma and lung concentration-time profiles of compound 1 after single i.p. dose at 10 mg/kg in male hamster (N = 3/time point). In-life parameters of compound 1 are provided for plasma and lung.
To monitor pharmacokinetics of compound 1 following single intraperitoneal administration to male hamsters, compound 1 was prepared prior to use in 10% DMSO, 10% Solutol HS 15, plus 80% PBS in a concentration of 2 mg/mL by weighing 19.65 mg of compound 1 into a new vial and then adding 0.982 mL DMSO into the vial containing the compound and vortexing the vial for 2 min. In addition, 0.982 mL Solutol HS 15 was then added into the vial containing the compound, and the vial was vortexed for 2 min. Also, 7.860 mL of PBS was then added into the vial which was further vortexed for 3 min and sonicated for 0.5 min. Male hamsters weighing 89 g–104 g (N = 18) were purchased from Beijing Weitong Lihua Laboratory Animal Co. Ltd. Hamsters were fasted overnight and fed at 4 h post-dosing. The compound was administered 10 mg/kg (5 mL/kg) via intraperitoneal injection. Sampling was done at 0.25, 0.5, 1, 2, 4, and 6 h post dose, six time points, by terminal bleeding for plasma and lung at each time point. Approximately 150 µL blood/time point was collected into the K2EDTA tube via the jugular vein. The blood sample was put on wet ice and centrifuged to obtain a plasma sample (2,000 g, 5 min under 4°C) within 15 min. Lung collection was performed by making a mid-line incision in the animals’ chest and abdomen, the skin was retracted, and the lung was exposed after cutting off the ribs and removing other organs using surgical scissors and forceps. The lung was removed using surgical scissors and then rinsed with cold saline. The lung was placed in screw-top tubes and then stored under −70°C until analysis. Lung tissue was homogenized for 2 min with two volumes (vol/wt) of PBS (pH 7.4) immediately before analysis by LC-MS/MS.

[3] = test system: SARS-CoV-2 Beta (B.1.351); assay: microbe, parasite or virus in culture; type: cell-based; settings: Severe acute respiratory syndrome coronavirus 2, Vero C1008, 48 h; read-out: EC50 viral high-content imaging assay
[4] = test system: SARS-CoV-2 Omicron (B.1.1.529); assay: microbe, parasite or virus in culture; type: cell-based; settings: Severe acute respiratory syndrome coronavirus 2, Vero C1008, 48 h; read-out: EC50 viral high-content imaging assay
[5] = test system: SARS-CoV-2 Delta (B.1.617); assay: microbe, parasite or virus in culture; type: cell-based; settings: Severe acute respiratory syndrome coronavirus 2, Vero C1008, 48 h; read-out: EC50 viral high-content imaging assay
[6] = test system: SARS-CoV-2 (B.1.1.529/Omicron); settings: for mean reduction in SARS-CoV-2 genomic RNA (E gene) in lung tissue: 1 at 100 mg/kg, PF-332 at 50 mg/kg i.p. b.i.d.
SARS-CoV-2 Mpro = SARS-CoV-2 Mpro (Severe acute respiratory syndrome coronavirus 2, UniProt P0DTC1); assay: biochemical; type: biochemical; settings: Mpro enzymatic assay
[7] = enzyme assay, at least 10-point dose-response curves in duplicate, read-out: Thrombin IC50
[8] = enzyme assay, at least 10-point dose-response curves in duplicate, read-out: CatL IC50
[9] = enzyme assay, at least 10-point dose-response curves in duplicate, read-out: CatB IC50
[10] = single IP dose at 10 mg/kg in male hamster
[11] = single i.p. dose at 10 mg/kg in male hamster

T2 sequence (P07711 114-333): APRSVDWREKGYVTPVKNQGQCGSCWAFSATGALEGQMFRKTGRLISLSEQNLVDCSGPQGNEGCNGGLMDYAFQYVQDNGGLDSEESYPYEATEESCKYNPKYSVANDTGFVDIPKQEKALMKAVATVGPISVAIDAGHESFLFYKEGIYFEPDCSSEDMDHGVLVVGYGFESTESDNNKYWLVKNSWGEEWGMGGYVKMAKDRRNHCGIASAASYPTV

For O=C(CN1C(=O)[C@@H](NC(=O)OCc2ccccc2)COc2ccccc21)N[C@@H](C[C@@H]1CCNC1=O)C(=O)COc1cc(C(F)(F)F)nn1-c1ccc(F)cc1 [Compound 21], the IC50 (thrombin; [7]) was > 32 µM, the IC50 (cathepsin L; [8]) was > 32 µM and the IC50 (cathepsin B; [9]) was 27 µM.

For O=C(CN1C(=O)[C@@H](NC(=O)c2ccc3ccccc3n2)COc2ccccc21)N[C@@H](C[C@@H]1CCNC1=O)C(=O)COC(=O)c1c(Cl)cccc1Cl [Compound 20], the IC50 (thrombin; [7]) was > 32 µM, the IC50 (cathepsin L; [8]) was 23.1 µM and the half-life at 0.5 µM [1] was < 2 min. It also gave an IC50 (cathepsin B; [9]) of 1.8 µM.

In the case of O=C(CN1C(=O)C(NC(=O)OCc2ccccc2)COc2ccccc21)NC(CC1CCNC1=O)C(=O)COC(=O)c1c(Cl)cccc1Cl (centres unmarked) [Compound 1], the EC50 (SARS-CoV-2 WT (WA1/2020)) is reported as 2.1 ± 2.1 µM, the IC50 (thrombin; [7]) is reported as > 32 µM and the Kp ([2]; lung / plasma, single IP dose at 10 mg/kg in male hamster, read-out: AUClung/AUCplasma) is reported as 3.2. It also gave a half-life ([2]; lung, single IP dose at 10 mg/kg in male hamster, read-out: lung T1/2 (converted)) of 48.6 min, a Tmax ([2]; lung, single IP dose at 10 mg/kg in male hamster, read-out: lung Tmax) of 30 min and a Cmax ([2]; plasma, single IP dose at 10 mg/kg in male hamster) of 990 ng/mL. The AUC(0-inf) ([2]; plasma, single IP dose at 10 mg/kg in male hamster, read-out: plasma AUCINF) was 1830 ng·h/mL, the AUC(0-t) ([2]; plasma, single IP dose at 10 mg/kg in male hamster, read-out: plasma AUClast) was 1820 ng·h/mL and the half-life ([2]; plasma, single IP dose at 10 mg/kg in male hamster, read-out: plasma T1/2 (converted)) was 44 min. The Tmax ([2]; plasma, single IP dose at 10 mg/kg in male hamster, read-out: plasma Tmax) was 15 min, the “lung AUCINF” value [2, 10] was 5854 ng·h/g and the “lung AUClast” value [2, 10] was 5818 ng·h/g. The “lung Cmax” value [2, 10] was 3623 ng/g, the “clinical symptoms during the in-life phase” value [2, 11] was “no abnormal clinical symptoms observed” and the “concentration achieved in the lung” value [2, 11] was “about 8 µM”. For the same compound, the EC50 [3] was 3.1 µM, the EC50 [4] was 0.9 ± 0.9 µM and the IC50 (cathepsin L; as stated in text: no substantial inhibition, read-out: cathepsin L IC50) was > 15 µM. The IC50 (cathepsin L; [8]) was > 32 µM, the EC50 [5] was 3 ± 2.4 µM and the half-life at 0.5 µM [1] was < 2 min. The IC50 (cathepsin B; as stated in text: no substantial inhibition, read-out: cathepsin B IC50) was > 15 µM, the IC50 (cathepsin B; [9]) was 18 µM and the “mean reduction in SARS-CoV-2 sub-genomic RNA (N gene) in lung tissue” value ([6]; […], 100 mg/kg i.p. b.i.d., versus vehicle, P = 0.002) was 2.0 log. The “mean reduction in SARS-CoV-2 genomic RNA (E gene) in lung tissue” value ([6]; […], versus vehicle) was 0.5 log, the “lung histopathology scores (H&E) compared to vehicle-treated SGH” value ([6]; hamster, in vivo) was “did not observe any significant difference” and the “reduction in SARS-CoV-2 viral titer from lung tissue” value ([6]; hamster, in vivo) was 32.6%. For the same compound, the “toxicities or behavioral abnormalities during dosing” value ([6]; hamster, in vivo) was “no obvious toxicities or behavioral abnormalities”.

In the case of O=C(CN1C(=O)[C@@H](NC(=O)c2ccccc2)COc2ccccc21)N[C@@H](C[C@@H]1CCNC1=O)C(=O)COC(=O)c1c(Cl)cccc1Cl [Compound 19], the half-life at 0.5 µM [1] is reported as < 2 min and the IC50 (cathepsin B; [9]) is reported as 13 µM.

For COc1cccc2[nH]c(C(=O)N[C@@H](CC(C)C)C(=O)N[C@@H](C[C@@H]3CCNC3=O)C(=O)COC(=O)c3c(Cl)cccc3Cl)cc12 [Compound 18, reference compound], the “time to achieve maximum inhibition” value (SARS-CoV-2 Mpro) was ≤ 10 min, the IC50 (cathepsin L; [8]) was 0.0018 µM and the half-life at 0.5 µM [1] was < 2 min. For the same compound, the IC50 (cathepsin B; [9]) was 0.024 ± 0.0075 µM.

For N[C@H]1COc2ccccc2N(CC(=O)N[C@@H](C[C@@H]2CCNC2=O)C(=O)COC(=O)c2c(Cl)cccc2Cl)C1=O [Compound 9], the half-life at 0.5 µM ([1]; mouse) was < 2 min.

For CC(C)C[C@H](NC(=O)OCc1ccccc1)C(=O)N[C@@H](C[C@@H]1CCNC1=O)C(O)S(=O)(=O)O (some centres unmarked) [GC-376, reference compound], the EC50 (SARS-CoV-2 WT (WA1/2020)) was 0.3 ± 0.5 µM, the IC50 (thrombin) was > 10 µM and the EC50 [4] was 0.4 ± 0.5 µM. It also gave an IC50 (cathepsin L) of 5e-05 µM, an EC50 [5] of 0.6 µM and an IC50 (cathepsin B) of 0.037 ± 0.015 µM.

For CC(C)(C)[C@H](NC(=O)C(F)(F)F)C(=O)N1C[C@H]2[C@@H]([C@H]1C(=O)N[C@H](C#N)C[C@@H]1CCNC1=O)C2(C)C [nirmatrelvir, reference compound], the “reduction in N sub-genomic RNA in lung tissue” value ([6]; […], 50 mg/kg i.p. b.i.d., versus vehicle) was 5.2 fold and the “mean reduction in SARS-CoV-2 genomic RNA (E gene) in lung tissue” value ([6]; […], versus vehicle) was 3.0 log.

— publication PMC11459967 (Antimicrobial Agents and Chemotherapy, 2024)
